Marks after values point to notes of the source that are not given here.
Key:
[1] = target: alternative complement pathway in human serum; assay: Wieslab alternative complement pathway activation inhibition (enzyme activity test); assay type: biochemical; conditions: human serum diluted 1:23, Wieslab alternative pathway kit; read-out: AP MAC IC50
Description: The objective of this experiment is to determine the inhibitory activity of the compounds of the present disclosure on the alternative complement pathway in human serum by using the Wieslab® complement system alternative pathway kit.
Serum was diluted with diluent (1:23). Drugs were added to the diluted serum with 8 concentration gradients of up to 10 mM or 50 mM in a 5-fold serial dilution. […] The mixture of compound and serum was added to a 96-well plate (100 μL/well) provided in the kit, and activated at 37° C. for 1 hour. The plate was washed three times with wash buffer. The plate was added with detection antibody (100 μL) provided in the kit and incubated at room temperature for 30 min. The plate was washed three times with wash buffer. The plate was added with substrate (100 μL) and incubated at room temperature for 30 min.

[2] = Pharmacokinetic study in mice; assay type: in vivo, male C57BL/6J mice
Description: Experimental objective: To investigate in vivo plasma pharmacokinetics of the compounds of the present disclosure after a single intravenous injection and intragastric administration in male C57BL/6J mice.
Experimental animals: male C57BL/6J mice, 7 to 9 weeks old, weighing 17 to 23 g; supplier: Shanghai Sipple-Bikai Laboratory Animal Co., Ltd.
(§1) Sample collection: 0.03 mL of blood samples were collected by puncture of the saphenous vein in experimental animals at each time point, and the actual blood collection time was recorded. All blood samples were added to 1.5 mL commercial EDTA-K2 anticoagulant tubes (supplied by Jiangsu Kangjian Medical Apparatus Co., Ltd.). After collection, within half an hour, the blood sample was centrifuged at 4° C., 3000 g for 10 min to aspirate the supernatant plasma, which was put in dry ice immediately, and stored in a refrigerator at −80° C. for LC-MS/MS analysis.
Data analysis: Plasma concentrations were processed using the non-compartmental model of WinNonlinTM Version 6.3 (Pharsight, Mountain View, CA) pharmacokinetic software, and pharmacokinetic parameters Cl, T1/2, Cmax, and AUC0-last were calculated using the linear/log trapezoidal method.

[3] = tested on: LPS-induced complement activation (plasma C3d protein levels); assay: In vivo PD model of LPS-induced complement activation in mice; set-up: species or system female C57BL/6J mice; conditions: for inhibition of C3d levels (LPS-induced complement activation): LPS i.p., plasma Western blot, FIG. 1; for inhibitory effect compared with LNP023: LPS-induced complement activation, C3d levels
Description: Experimental objective: To investigate the inhibitory effect of the compounds of the present disclosure on complement activation in mice induced by LPS stimulation. Experimental animals: female C57BL/6J mice, 7 to 9 weeks old, weighing 17 to 23 g; supplier: Shanghai Sipple-Bikai Laboratory Animal Co., Ltd.
Experimental procedure: 100 μg of lipopolysaccharide (LPS) in Salmonella typhimurium (Sigma) dissolved in 100 μL of sterile PBS was intraperitoneally injected to induce complement activation in mice. Negative control animals were intraperitoneally injected 100 μL of sterile PBS, and administered alone by tube feeding (PO). Positive control animals were intraperitoneally injected LPS and PO drug vehicles (0.5% (w/v) methyl cellulose and 0.5% (v/v) Tween 80). The time points for administration and plasma collection are as follows:
Sample collection: 0.3 mL of blood samples were collected from the orbital venous plexus. All blood samples were added to 1.5 mL commercial EDTA-K2 anticoagulant tubes (supplied by Jiangsu Kangjian Medical Apparatus Co., Ltd.). After collection, within half an hour, the blood sample was centrifuged at 4° C., 3000 g for 10 min to aspirate the supernatant plasma, which was put in dry ice immediately, and stored in a refrigerator at −80° C. for Western blot analysis of downstream C3d protein levels after complement activation.

[4] = Pharmacokinetic study in rats; assay type: in vivo, male Wistar Han rats
Description: Experimental objective: To investigate in vivo plasma pharmacokinetics of the compounds of the present disclosure after a single intravenous injection and intragastric administration in male Wistar Han rats.
Experimental procedure: injection administration (IV): a dose of 1 mpk (vehicle: 30% PEG300/10% Cremphor EL/60% PBS (1×pH 7.4)); oral administration (PO): a dose of 5 mpk or 30 mpk (vehicle: 30% PEG300/10% Cremphor EL/60% PBS (1×pH 7.4))
as §1, with “About 0.3” for “0.03”, “jugular” for “saphenous”, “collection,” for “collection, within half an hour,”, “3200” for “3000”
Data analysis: Plasma concentrations were processed using the non-compartmental model of Phoenix WinNonlin 6.3 pharmacokinetic software, and pharmacokinetic parameters Cl, Cmax, T1/2, and AUC0-last were calculated using the linear/log trapezoidal method.

[5] = tested on: Sheep Anti-Rat Fx1A Serum induced Heymann nephritis; assay: In vivo pharmacodynamic model of passive Heymann nephritis in rats; set-up: species or system male SD rats; conditions: intragastric twice a day for 14 days, FIG. 2
Excerpt: Experimental objective: To investigate the ability of the compounds of the present disclosure to improve renal function of Sheep Anti-Rat Fx1A Serum induced Heymann nephritis in rats, including the evaluation of reducing proteinuria level and improving renal tissue damage.
Experimental animals: male SD rats, 7 to 10 weeks old, weighing 200 to 300 g; supplier: Beijing Vital River Laboratory Animal Technology Co., Ltd.
Urine was collected from rats on D-2 before administration. […]
Kidney sample collection: All animals were euthanized with CO2 inhalation anesthesia on Day 15, and bilateral kidneys were collected. […] Urine total protein (uTP) in rats was detected without dilution; if exceeding the upper detection limit, it was 10-fold diluted (10 μL of sample+90 μL of saline (0.9% saline)) first (Decrease mode); if still exceeding the upper detection limit after 10-fold dilution, it was 100-fold diluted (2 μL of sample+198 μL of saline (0.9% saline)) (Increase mode). Data were read by the analytical instrument HITACHI LST008 AS (P). • (2) Kidney pathological scoring: The degree of drug damage to rat kidneys (paraffin sections) was analyzed by HE staining. […]

[6] = male, C57BL/6J, mouse, plasma, 1 mg/kg, IV (1 mpk)
[7] = male, C57BL/6J, mouse, plasma, 10 mg/kg, PO (10 mpk)
[8] = male, Wistar Han, rat, plasma, 1 mg/kg, IV (1 mpk)

Structure (SMILES): COc1cc(C)c2[nH]ccc2c1CN1CC[C@H](C2CC2)C[C@H]1c1ccc(C(=O)O)cc1 [Compound 3A]
- IC50 [1]: 23.6 nM
- Cl ([2]; IV (1 mpk)): 12.0 mL/min/kg
- T1/2 ([2]; IV (1 mpk)): 3.9 h
- AUC0-last ([2]; PO (10 mpk)): 11.156 µM·h
- Cmax ([2]; PO (10 mpk)): 4770 nM
- inhibition of C3d levels (LPS-induced complement activation) [3]: significantly inhibit C3d levels
- inhibitory effect compared with LNP023 [3]: better inhibitory effect than that of LNP023

Structure (SMILES): COc1cc(C)c2[nH]ccc2c1CN1CC[C@@H](C2CC2)C[C@H]1c1ccc(C(=O)O)cc1 [Compound 3C]
- IC50 [1]: 51.7 nM
- Cl ([2]; IV (1 mpk)): 11.1 mL/min/kg
- T1/2 ([2]; IV (1 mpk)): 3.4 h
- AUC0-last ([2]; PO (10 mpk)): 23.3 µM·h
- Cmax ([2]; PO (10 mpk)): 6320 nM
- Cl ([4]; IV (1 mpk)): 4.6 mL/min/kg
- T1/2 ([4]; IV (1 mpk)): 3.8 h
- F % ([4]; PO (5 mpk or 30 mpk)): 62%
- Cmax ([4]; PO (5 mpk or 30 mpk), dose-normalized data): 838 nM
- AUC0-last ([4]; PO, a dose of 5 mpk, dose-normalized data): 5399^a nM · h
- inhibition of C3d levels (LPS-induced complement activation) [3]: significantly inhibit C3d levels
- inhibitory effect compared with LNP023 [3]: better inhibitory effect than that of LNP023

Structure (SMILES): CCO[C@H]1CCN(Cc2c(OC)cc(C)c3[nH]ccc23)[C@H](c2ccc(C(=O)O)cc2)C1 [LNP023, reference compound]
- clearance [2, 6]: 18.4 mL/min/kg
- half-life [2, 6]: 1.3 h
- AUC(0-t) [2, 7]: 9.3 µM·h
- Cmax [2, 7]: 2500 nM
- clearance [4, 8]: 6.7 mL/min/kg
- half-life [4, 8]: 1.2 h
- AUC(0-t) ([4]; male, Wistar Han, rat, plasma, 30 mg/kg, PO, a dose of 30 mpk, dose-normalized data): 2.19 µM·h
- bioavailability ([4]; male, Wistar Han, rat, plasma, PO (5 mpk or 30 mpk)): 38%
- Cmax ([4]; male, Wistar Han, rat, plasma, PO (5 mpk or 30 mpk), dose-normalized data): 379 nM
- inhibition of C3d levels (LPS-induced complement activation) [3]: significantly inhibit C3d levels
- urinary protein levels and renal function [5]: significantly inhibit urinary protein levels in rats and improve renal function in rats

Source: US20240109861A1, “SERIES OF PIPERIDINE-SUBSTITUTED BENZOIC ACID COMPOUNDS, AND USE THEREOF” (priority 2020, published 2024)
